Consider one compound from patent publication US8119599B2, “Direct application of non-toxic crosslinking reagents to resist progressive spinal degeneration and deformity” (Orthopeutics, L.P., priority 2001, dated 2012).

Data set [1] relates to intervertebral discs (nucleus pulposus, inner and outer annulus fibrosus). The data set is described as follows: Hydration change / fluid flux of disc regions after soaking, creep loading and resoaking. The note with it: for Water content, Gr C2: 0.33% Genipin 2 days, then 750N creep loading 1 hour; for % increase by Genipin (flux versus control) / Genipin Flux / % increase by Genipin (fluid flow into and out of the nucleus versus control): 0.33% genipin; for Water content, Gr B2: 1 day PBS then 2 days 0.33% genipin solution; for Water content, Gr D2: 0.33% genipin 2 days, 750N creep 1 hour, PBS another day. Set-up: species or system calf (4 month old bovine). The text has this: By measuring the change in hydration of different regions of the intervertebral disc (nucleus pulposus, inner annulus, and outer annulus fibrosus) prior to and after periods of soaking, sustained compressive loading, and resoaking, the fluid flux to and from different regions can be determined. By comparing these measurements between control discs and discs treated with crosslinking reagents known to have minimal cytotoxicity, we see the effect of crosslinking treatment on fluid flux and permeability. A total of 24 calf (4 month old bovine) intervertebral discs were used for this study. Water content of three different areas of the […] tissue were tested-the nucleus pulposus, inner annulus fibrosus and outer annulus fibrosus. Hydration change was determined by weighing the specimen using a micro-balance (sensitivity: 0.1 mg). Water content (M) was calculated as: M=(Wet Weight-Dry Weight)/Wet Weight=g H2O/g Wet Weight The drying procedure consisted of putting the specimens in the oven with a controlled temperature of 90 degree C. for 24 hours. The specimens were separated into four tests: 1. Group A: Three specimens were in this group. It served as a control group. The specimens were soaked in PBS (phosphate buffered saline) for 1 day and then the hydration analysis was performed. 2. Group B1: Four specimens were in this group. In addition to the one day PBS soaking, the specimens soaked in PBS for 2 more days as a control and then the hydration analysis was performed. Group B2: Five specimens were in this group. In addition to the one day PBS soaking, the specimens were soaked in 0.33% genipin solution for 2 days and then the hydration analysis was performed. 3. In group C, a small daytime amount of constant compressive loading (creep) was simulated. C1: Three specimens were in this group. The specimens were soaked in PBS for 3 days and then […] of compression was applied by a materials testing machine for 1 hour. The disc was compressed in a 5 degree of flexion posture produced by two rollers attached to the loading ram of the materials testing machine. The hydration analysis was performed immediately after the creep loading. C2: Three specimens were in this group. The specimens were soaked in 0.33% Genipin solution for 2 days after 1 day of PBS soaking and performed identical creep loading with […] compressive load. The hydration analysis was performed immediately after the creep loading. 4. In group D, the imbibition of water following a period of compressive loading that typically occurs in the night time as a person is in a recumbent posture was simulated. D1: The specimens were soaked in PBS solution for 3 days and then 1 hour of creep loading at 750 N was applied. After the creep loading, the specimens were placed in a container in 1 PBS for one more day followed by the hydration analysis. D2: Three specimens were included and were soaked in 0.33% genipin solution for 2 days after one day of PBS soaking. A creep load of […] for one hour was then applied. The specimens were put in PBS for another day followed by the hydration analysis.

The conditions of data set [2]: compared to other more commonly used crosslinking agents; cited from earlier work.
In data set [3] the test system is collagenous, load-supporting tissues. The note with it: compared with other crosslinking reagents (Sung 1999b); cited from earlier work.
Data set [4] has as its system posterior intervertebral disc (lumbar intervertebral joints). Kind of data set: Indentation hardness of posterior annulus before and after compression/flexion fatigue cycling. Set-up: species or system calf. The note with it: 0.33% Genipin soak; up to 3000 fatigue cycles. Here is the method:
(§1) Thirty-three lumbar intervertebral joints were obtained from ten four-month-old calf spines. The intervertebral joints were arbitrarily divided into 3 groups: untreated controls-12 specimens, Genipin treatment 1 (G1)-6 specimens, and Genipin treatment 2 (G2)-13 specimens. The G1 treatment involved 72 hours of soaking the whole specimen in PBS with a 0.033% concentration of Genipin. Similarly the G2 treatment involved 72 hours of soaking whole specimens in PBS with 0.33% concentration of Genipin. 0.33% Genipin in PBS is produced by dilution of 50 ml of 10 times. PBS (Phosphate Buffered Saline) with distilled water by a factor of 10 to give 500 ml (500 gm) of PBS and mixing in 1.65 grams of genipin to produce the 0.33% (wt %, gm/gm) solution. […] Some controls were not subjected to soaking prior to fatigue testing. Others were soaked in a saline solution for 72 hours. Water mass loss experiments were conducted to establish the equivalency of outer annulus hydration between the genipin soaked and 0.9% saline soaked controls. The selection of treatments was randomized by spine and level. The vertebral ends of the specimens were then potted in polyurethane to facilitate mechanical testing. At the prescribed points in the loading regimen, indentation testing was used to find viscoelastic properties as follows. Stress relaxation data was gathered by ramp loading the 3 mm diameter hemi-spherical indenter to 10 N and subsequently holding that displacement for 60 s, while recording the resulting decrease in stress, referred to as the stress relaxation. Indentation testing was also utilized to determine elastic-plastic properties by calculating a hardness index (resistance to indentation) from ramp loading data. Prior to recording hardness measurements, the tissue is repeatedly indented 10 times (60 s/cycle, to the displacement at an initial 10 N load). This test protocol is based on two principles. First, viscoelastic effects asymptotically decrease with repeated loading. Secondly, hardness measurements are sensitive to the loading history of the tissue. However this effect becomes negligible following 10 loading cycles. In order to minimize these effects, viscoelastic data (stress relaxation) was collected from tissue that had not previously been indented. Alternately, elastic-plastic data (hardness) was collected from tissue that had been repeatedly loaded (preconditioned). In this case, repetitive indentation was intended to reduce the undesired effects of the changing viscoelastic properties, namely lack of repeatability, on hardness measurements. […] Several statistical measures were calculated to evaluate the significance of the results. […]

For data set [5] the test system is unchanged. The data set is described as follows: Indentation stress relaxation of posterior annulus before and after compression/flexion fatigue cycling. Also noted: species or system calf. The note with it: soaking calf disc tissue in 0.33% concentration of genipin. Here is the method:
as §1, with “measurements. These testing procedures were derived from several preliminary experiments on the repeatability of the measurements with variations of loading history and location. Following initial indentation testing, the specimen was loaded repetitively in flexion-compression at 200 N for 3000 cycles at a rate of 0.25 Hz. The load was applied perpendicularly to the transverse plane, 40 mm anterior to the mid-point of the specimen in the transverse plane. A second set of indentation testing data is then collected following fatigue cycling. This procedure was followed for two fatigue loading cycles. During all testing, the specimens were wrapped in saline wetted gauze to maintain their moisture content.” for “measurements.”

Data set [6] has as its system annulus fibrosus specimens from lumbar intervertebral discs. Kind of data set: Radial tear resistance test of annulus fibrosus specimens. The note with it: soaked two days in 0.15M PBS plus 0.33% genipin. Also noted: species or system bovine. An excerpt: Ten annulus fibrosus circumferentially aligned specimens from bovine lumbar (T12-L5) intervertebral discs were divided into two groups and either soaked two days in a 0.15M PBS or a 0.15M PBS plus 0.33% genipin solution. A custom loading fixture attached to a uniaxial materials testing system was designed to hold an annulus specimen perpendicular to the travel of a metal cylinder placed in a pre-existing radial cut. The cylinder was then pulled radially (perpendicular to lamellae) towards the external layer. Time dependent force and displacement data was acquired simultaneously. Tearing resistance was quantified in two ways: peak force normalized by specimen thickness and tearing energy per area of tear. Differences between groups were analyzed using the Mann-Whitney non-parametric test.

As for `COC(=O)C1=CO[C@@H](O)[C@@H]2C(CO)=CC[C@H]12` [genipin], in data set [1] (Inner AF), the “Water content, Gr C2” value is recorded as 0.7394 g H2O/g Wet Weight; the “% increase by Genipin (flux versus control)” value is given as 17.3%; the “Genipin Flux” value is given as 0.1008; the “Water content, Gr B2” value is 0.7629 g H2O/g Wet Weight. Further, in data set [1] (NP), the “Water content, Gr C2” value was 0.817 g H2O/g Wet Weight; the “% increase by Genipin (fluid flow into and out of the nucleus versus control)” value was 64%; the “Genipin Flux” value was 0.04983; the “Water content, Gr D2” value was 0.8524 g H2O/g Wet Weight. The “Water content, Gr B2” value in data set [1] (NP) came to 0.8314 g H2O/g Wet Weight. Moreover, the “% increase by Genipin (fluid flow into and out of the nucleus versus control)” value in data set [1] (NP, listed as Genipin) was 63.7%. Besides, in data set [1] (Outer AF), the “Water content, Gr C2” value came out at 0.6924 g H2O/g Wet Weight; the “% increase by Genipin (flux versus control)” value amounted to 5.7%; the “Genipin Flux” value was 0.05294; the “Water content, Gr D2” value was 0.711 g H2O/g Wet Weight. Further, the “Water content, Gr B2” value in data set [1] (Outer AF) is on record as 0.7268 g H2O/g Wet Weight. Moreover, the cytotoxicity result in data set [2] is on record as “significantly less cytotoxicity”. Moreover, the “ultimate tensile strength and toughness” value in data set [3] was “greater ultimate tensile strength and toughness”. Moreover, the “persistence of hardness improvement under fatigue cycling” value in data set [4] is given as “unable to sustain an improvement in the elastic mechanical properties (hardness) to 3000 test cycles”. For the same compound, the “reduction in viscoelastic degradation” value in data set [5] is recorded as “More than a three-fold reduction”. Also, in data set [6], the “Normalized peak force (peak force normalized by specimen thickness)” value was 42.7 N/mm and the “Total energy per area of tear” value turned out to be 40.2 mJ/mm^2.
